# What was measured:
# hCB1 = hCB1 (Homo sapiens, UniProt P21554); assay: bioSensAll ebBRET signaling profiling, hCB1; type: cell-based; parameters: host or cells: HEK293SL cells, transient PEI transfection; conditions: for Barr2+GRK2 hCB1 response: Barr2+GRK2 biosensor; for Gi1 hCB1 / GoB hCB1: single replicate values, FigS6a
# CB1 (rCB1) [1] = target: T1, CB1 (rCB1) (Rattus norvegicus, UniProt P20272); assay: Single-point radioligand displacement screen; type: binding; conditions: 10 µM, 1 µM or 300 nM by cell colour (not visible)
# CB1 (rCB1) [2] = target: T1, CB1 (rCB1); assay: Radioligand competition binding, [3H]-CP-55,940, rat brain membranes
# Sequence of hCB1 (P21554 whole entry): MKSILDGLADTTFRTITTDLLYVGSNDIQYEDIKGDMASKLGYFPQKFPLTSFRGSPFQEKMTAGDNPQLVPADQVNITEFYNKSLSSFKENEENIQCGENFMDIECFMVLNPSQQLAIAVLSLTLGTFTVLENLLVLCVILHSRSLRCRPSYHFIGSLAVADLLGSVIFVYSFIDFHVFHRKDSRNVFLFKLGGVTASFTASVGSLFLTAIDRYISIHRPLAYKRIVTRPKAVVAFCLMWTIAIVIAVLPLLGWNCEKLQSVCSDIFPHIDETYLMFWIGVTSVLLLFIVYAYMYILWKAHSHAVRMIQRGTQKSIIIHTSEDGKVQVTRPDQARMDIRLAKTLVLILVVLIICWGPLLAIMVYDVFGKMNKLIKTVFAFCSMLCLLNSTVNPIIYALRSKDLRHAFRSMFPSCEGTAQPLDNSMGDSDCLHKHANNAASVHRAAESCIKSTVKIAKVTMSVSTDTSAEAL
# T1 sequence (P20272 whole entry): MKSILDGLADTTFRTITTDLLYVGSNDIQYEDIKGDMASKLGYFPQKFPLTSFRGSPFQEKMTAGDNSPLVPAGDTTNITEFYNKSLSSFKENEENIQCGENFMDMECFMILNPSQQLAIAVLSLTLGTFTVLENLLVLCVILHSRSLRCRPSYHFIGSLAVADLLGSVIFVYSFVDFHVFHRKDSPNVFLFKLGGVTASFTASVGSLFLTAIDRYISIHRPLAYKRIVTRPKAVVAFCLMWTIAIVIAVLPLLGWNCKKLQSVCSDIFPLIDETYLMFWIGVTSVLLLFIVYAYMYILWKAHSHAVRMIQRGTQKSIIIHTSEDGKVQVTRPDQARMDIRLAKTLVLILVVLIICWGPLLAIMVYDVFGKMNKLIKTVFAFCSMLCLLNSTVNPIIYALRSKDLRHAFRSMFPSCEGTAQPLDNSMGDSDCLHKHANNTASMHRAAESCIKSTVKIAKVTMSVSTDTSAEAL
smiles,measurement,setting,value
Brc1cc2c(cc1Cc1noc(-c3cnn(CC4CC4)c3)n1)OCO2 [‘5424],Barr2+GRK2 hCB1 response,hCB1; Log [Compound] (M) -4.22186,13.3846
same,Barr2+GRK2 hCB1 response,hCB1; Log [Compound] (M) -4.63927,-34.7954
same,Barr2+GRK2 hCB1 response,hCB1; Log [Compound] (M) -5.05788,-53.3016
same,Barr2+GRK2 hCB1 response,hCB1; Log [Compound] (M) -5.47381,-24.9041
same,Barr2+GRK2 hCB1 response,hCB1; Log [Compound] (M) -5.89285,-50.1109
same,Barr2+GRK2 hCB1 response,hCB1; Log [Compound] (M) -6.31878,-50.749
same,Barr2+GRK2 hCB1 response,hCB1; Log [Compound] (M) -6.72585,-48.8346
same,Barr2+GRK2 hCB1 response,hCB1; Log [Compound] (M) -7.14267,-52.6635
same,Barr2+GRK2 hCB1 response,hCB1; Log [Compound] (M) -7.55284,-51.0681
same,Barr2+GRK2 hCB1 response,hCB1; Log [Compound] (M) -8,-33.5191
same,Barr2+GRK2 hCB1 response,hCB1; Log [Compound] (M) -8.22186,-13.7366
same,Barr2+GRK2 hCB1 response,hCB1; Log [Compound] (M) -8.39794,-34.7954
same,Barr2+GRK2 hCB1 response,hCB1; Log [Compound] (M) -8.68787,-65.1073
same,Barr2+GRK2 hCB1 response,hCB1; Log [Compound] (M) -9.15521,-41.4959
same,Barr2+GRK2 hCB1 response,hCB1; Log [Compound] (M) -9.61989,-48.1965
same,Barr2+GRK2 hCB1 response,hCB1; Log [Compound] (M) -10.0969,-56.8114
same,Barr2+GRK2 hCB1 response,hCB1; Log [Compound] (M) -10.5529,-48.8346
same,Barr2+GRK2 hCB1 response,hCB1; Log [Compound] (M) -11.0177,-49.7918
same,Barr2+GRK2 hCB1 response,hCB1; Log [Compound] (M) -11.4949,-48.1965
same,Barr2+GRK2 hCB1 response,hCB1; Log [Compound] (M) -11.9208,-46.9202
same,Barr2+GRK2 hCB1 response,hCB1; Log [Compound] (M) -12.3979,-47.8774
same,Barr2+GRK2 hCB1 response,hCB1; Log [Compound] (M) -12.8861,-20.4371
same,Barr2+GRK2 hCB1 response,hCB1; Log [Compound] (M) -13.3979,-11.8221
same,Gi1 hCB1,hCB1; Log [Compound] (M) -4.22186,-12.5553
same,GoB hCB1,hCB1; Log [Compound] (M) -4.22186,-17.0204
same,Gi1 hCB1,hCB1; Log [Compound] (M) -4.63927,-11.9852
same,GoB hCB1,hCB1; Log [Compound] (M) -4.63927,-18.7739
same,Gi1 hCB1,hCB1; Log [Compound] (M) -5.05788,-14.0757
same,GoB hCB1,hCB1; Log [Compound] (M) -5.05788,-12.8536
same,Gi1 hCB1,hCB1; Log [Compound] (M) -5.47381,-12.6978
same,GoB hCB1,hCB1; Log [Compound] (M) -5.47381,-15.4926
same,Gi1 hCB1,hCB1; Log [Compound] (M) -5.89285,-12.001
same,GoB hCB1,hCB1; Log [Compound] (M) -5.89285,-16.569
same,Gi1 hCB1,hCB1; Log [Compound] (M) -6.31878,-13.0779
same,GoB hCB1,hCB1; Log [Compound] (M) -6.31878,-15.128
same,Gi1 hCB1,hCB1; Log [Compound] (M) -6.72585,-11.811
same,GoB hCB1,hCB1; Log [Compound] (M) -6.72585,-16.3259
same,Gi1 hCB1,hCB1; Log [Compound] (M) -7.14267,-11.1775
same,GoB hCB1,hCB1; Log [Compound] (M) -7.14267,-15.4926
same,Gi1 hCB1,hCB1; Log [Compound] (M) -7.55284,-10.8449
same,GoB hCB1,hCB1; Log [Compound] (M) -7.55284,-14.0342
same,Gi1 hCB1,hCB1; Log [Compound] (M) -8,-8.707
same,GoB hCB1,hCB1; Log [Compound] (M) -8,-12.871
same,Gi1 hCB1,hCB1; Log [Compound] (M) -8.22186,-5.46
same,GoB hCB1,hCB1; Log [Compound] (M) -8.22186,-9.781
same,Gi1 hCB1,hCB1; Log [Compound] (M) -8.39794,-6.126
same,GoB hCB1,hCB1; Log [Compound] (M) -8.39794,-10.3709
same,Gi1 hCB1,hCB1; Log [Compound] (M) -8.68787,-3.497
same,GoB hCB1,hCB1; Log [Compound] (M) -8.68787,-5.77
same,Gi1 hCB1,hCB1; Log [Compound] (M) -9.15521,-3.212
same,GoB hCB1,hCB1; Log [Compound] (M) -9.15521,-5.544
same,Gi1 hCB1,hCB1; Log [Compound] (M) -9.61989,-0.3926
same,GoB hCB1,hCB1; Log [Compound] (M) -9.61989,-4.867
same,Gi1 hCB1,hCB1; Log [Compound] (M) -10.0969,-1.39
same,GoB hCB1,hCB1; Log [Compound] (M) -10.0969,-5.128
same,Gi1 hCB1,hCB1; Log [Compound] (M) -10.5529,0.9853
same,GoB hCB1,hCB1; Log [Compound] (M) -10.5529,-3.287
same,Gi1 hCB1,hCB1; Log [Compound] (M) -11.0177,-1.058
same,GoB hCB1,hCB1; Log [Compound] (M) -11.0177,-4.781
same,Gi1 hCB1,hCB1; Log [Compound] (M) -11.4949,-2.008
same,GoB hCB1,hCB1; Log [Compound] (M) -11.4949,-5.51
same,Gi1 hCB1,hCB1; Log [Compound] (M) -11.9208,-4.653
same,GoB hCB1,hCB1; Log [Compound] (M) -11.9208,-6.586
same,Gi1 hCB1,hCB1; Log [Compound] (M) -12.3979,-2.024
same,GoB hCB1,hCB1; Log [Compound] (M) -12.3979,-6.3778
same,Gi1 hCB1,hCB1; Log [Compound] (M) -12.8861,-1.992
same,GoB hCB1,hCB1; Log [Compound] (M) -12.8861,-4.242
same,Gi1 hCB1,hCB1; Log [Compound] (M) -13,0.06671
same,GoB hCB1,hCB1; Log [Compound] (M) -13,-4.798
same,Gi1 hCB1,hCB1; Log [Compound] (M) cell empty,-0.7726
same,GoB hCB1,hCB1; Log [Compound] (M) cell empty,-5.458
same,"% 1H-CP-55,940 displacement (mean) from single point screen",CB1 (rCB1) [1],80.66%
same,Ki,CB1 (rCB1) [2],876 nM

# From PMC11882969 (Nature Communications, 2025)
